Data taken from patent EP4577640B1, “COMPOSITION COMPRISING AVENANTHRAMIDE C FOR INDUCING DIFFERENTIATION OF MESENCHYMAL STEM CELLS INTO CHONDROCYTES AND METHOD OF USING THE SAME” (Medeze Treasury Ptd. Ltd, priority 2023, dated 2025).

Experiments:
[1] = test system: Adipose-derived Mesenchymal Stem Cells (MSCs); assay: Immunofluorescence analysis of chondrocyte marker proteins on day 21 of in vitro chondrogenic differentiation (monolayer culture); type: cell-based, human
Experimental: (§1) In Vitro Chondrogenic Differentiation: In Vitro, chondrogenic differentiation using monolayer culture was performed. P4 MSCs were seeded in Gelatin-coated 24 well plates at 6000 cells/cm2. MSCs were expanded for 3 days before switching to the following Chondrocyte differentiation media (CDM) for 21 days (FIG. 1A).
(§2) Standard chondrocyte differentiation medium (STD) consists of DMEM Low Glucose (DMEM LG; Gibco #31600083), supplemented with 0.5 µg/ml hydrocortisone (Sigma-Aldrich #H0888), 1% Fetal bovine serum (FBS; Biowest #S181B), 1 X Insulin-Transferrin-Selenium-X (ITS-X; Gibo #51500056) or ITS+1 Liquid Media Supplement (Sigma-Aldrich #I2521), 10ng/ml recombinant human TGF-beta 3 (R&D Systems #8420-B3-025), […] L-ascorbate-2-phosphate (Sigma-Aldrich #49752), 1% Penicillin-Streptomycin (pen-strep; Gibco #15140122) and 500ng/ml Amphotericin B (Amp B; Gibco #15290026). Standard CDM (STD) will be used as a control (FIG. 1A).
Standard chondrocyte differentiation medium (STD) or CDM1 is then supplemented with 3 different treatment groups: 100 nM Avenanthramide C (Avn C; Sigma-Aldrich #36465) in CDM2, 500 ug/mL Chondroitin Sulfate (5 x CS; Sigma-Aldrich #C4384) in CDM3, and combination of 100 nM Avenanthramide C and 500 ug/mL Chondroitin Sulfate in CDM4 (FIG. 1A). […]

[2] = test system: mouse articular chondrocytes; details: cited from earlier work
[3] = test system: Adipose-derived Mesenchymal Stem Cells (MSCs); assay: RT-PCR mRNA expression analysis of chondrocyte markers relative to GAPDH; type: cell-based, human; details: Avn C treatment alone
Experimental: as §1
as §2, with “1A). […]” for “1A).”
It is imperative to investigate the impact of Avn C on transcriptionally regulated chondrocyte properties, both when used individually and in conjunction with chondroitin sulfate at an optimal dosage of 500ug/mL (5X CS). To assess this, RT-PCR mRNA expression analysis is employed, which offers precise quantitative data on relative mRNA expressions. […]

O=C(/C=C/c1ccc(O)c(O)c1)Nc1ccc(O)cc1C(=O)O [Avn C, Avenanthramide C]
expression of the COL2A1 protein (immunofluorescence signals) ([1]; 21-day treatment, CDM2 (STD + 100 nM Avn C) compared to CDM1 (STD)): significantly increasing the expression of the COL2A1 protein
optimal concentration of Avn C for enhancing Collagen 2A1 protein signals ([1]; 21 days in STD with 0 nM, 10 nM, 100 nM, 1 uM, 10 uM, 50 uM Avn C, MSCs from a different individual): around 100 nM
expression of catabolic factors MMP-3, -12, and -13 ([2]; induced by IL-1β in mouse articular chondrocytes): effectively suppressed the expression of catabolic factors
IL-1β-mediated reduction of mature factors Collagen 2 (COL2A1) and SOX9 ([2]; mouse articular chondrocytes): did not impact the IL-1β-mediated reduction of mature factors
COL2A1 expression, transcriptional versus protein level [3]: influences COL2A1 at protein levels (FIGS. 2 and 3) rather than at the transcriptional level
